Test results as given in paper PMC13403234, “Engineering Cathepsin S Selective Chemical Probes and Antibody−Drug Conjugates through Substrate Profiling with Unnatural Amino Acids” (Journal of Medicinal Chemistry, 2026).
*1 amine or outer side, *2 acyl side, *3 side chain or, on linkers, in order; H or OH if unused. Where a SMILES comes first, the peptide text is derived from it. [ ]: non-standard residue; d: D form. The star is where a group is joined. Dolaproine = CO[C@@H]([C@@H]1CCCN1)[C@@H](C)C(=O)O; Dil = CC[C@H](C)[C@H](NC)[C@@H](CC(=O)O)OC; Met(O2) = CS(=O)(=O)CC[C@H](N)C(=O)O; PABC = O=C(OCc1ccc(N[*:1])cc1)[*:2]; X1 = C[C@@H](N*)[C@@H](O)c1ccccc1; tBuAla = CC(C)(C)C[C@H](N)C(=O)O; Cit = NC(=O)NCCC[C@H](N)C(=O)O; NMeV = CN[C@H](C(=O)O)C(C)C; Cbz = O=C(OCc1ccccc1)*

Legend:
[1] = ADC stability in mouse serum (free MMAE by LC-MS/MS); assay type: in vitro ADME; details: anti-TROP-2 sacituzumab-based ADCs, up to 1 week, 37 °C
Protocol: Selected ADCs were incubated at 0.1 mg/mL in 100 μL of plasma samples for 24, 48, 72, and 168 h at 37 °C. The samples were then frozen at −80 °C and subjected to LC-MS/MS analysis. Stock solutions of MMAE and MMAE-d 8 standards were prepared in DMSO at a concentration of 10 mM and stored at −20 °C until use. Calibration solutions were prepared by diluting the stock solutions with methanol/ethanol (50:50, v/v). Mouse and human serum were purchased from Sigma-Aldrich. The concentration of MMAE in serum samples was determined based on the method described by Mak et al., with minor modifications. Briefly, 10 μL of serum was spiked with 5 μL of 25 nM MMAE-d 8 as an internal standard (IS), followed by the addition of 35 μL of ice-cold ethanol/methanol (50:50, v/v). The mixture was vortexed for 5 min and then incubated at − 20 °C for 30 min to precipitate proteins. The samples were subsequently centrifuged for 30 min at 20,000 × g and 4 °C. The supernatant was collected and subjected to LC-MS analysis. A Waters Acquity Premier UPLC system (Massachusetts, USA), consisting of a binary pump, thermostatic column holder, and refrigerated sample manager, was used for chromatographic separation. Separation was performed on an Acquity UPLC BEH C18 column (2.1 × 50 mm, 1.7 μm) using 0.1% formic acid in water as mobile phase A and 0.1% formic acid in methanol as mobile phase B. The column temperature and sample manager temperature were maintained at 45 and 15 °C, respectively. The injection volume was 1 μL, and the flow rate was 0.3 mL/min. The gradient started at 20% B, increased to 90% B over 3 min, and was held at 90% B for 2 min. Finally, the column was equilibrated back to 20% B for 1 min. The total run time was 6 min. MS analysis was performed using a Waters Xevo TQ-Absolute XR triple quadrupole mass spectrometer (Massachusetts, USA) equipped with an electrospray ionization interface. Samples were analyzed in positive multiple reaction monitoring (MRM) mode. […] MMAE and MMAE-d8 were detected based on their characteristic MRM transitions and retention times. […]

MDA-MB-231 cells = test: MTS cell viability assay, MDA-MB-231; assay type: cell-based, human; details: TROP-2-positive MDA-MB-231 cells
Protocol: The BT-474 (ATCC HTB-20, RRID: CVCL_0179), MCF-7 (ATCC HTB-22, RRID: CVCL_0031), and MDA-MB-231 (ATCC HTB-26, RRID: CVCL_0062) breast cancer cell lines were cultured at 37 °C in a humidified incubator with 5% CO2. Cells were maintained in Dulbecco’s Modified Eagle Medium (DMEM; Gibco, Cat. No. 41965−039) supplemented with 10% fetal bovine serum (FBS; Gibco, Cat. No. A5256801), L-glutamine, sodium pyruvate, penicillin […], and streptomycin (0.1 mg/mL). All cell lines were routinely tested for mycoplasma contamination (every 12−16 weeks) using a PCR-based detection kit.
Cell viability was evaluated using the MTS assay (CellTiter 96 AQueous One Solution Cell Proliferation Assay, Promega, Cat. No. G358B) according to the manufacturer’s instructions. BT-474 cells were seeded at a density of 20,000 cells/well, while MCF-7 and MDA-MB-231 cells were seeded at 5,000 cells/well in 96-well plates and allowed to adhere overnight. Peptide prodrugs, free MMAE (used as a control), or ADCs were added in serial dilutions. For peptide prodrugs and MMAE, concentrations ranged from 0.001 to 10 μM; for ADCs, from 0.03 to 3 μM. […] Absorbance was measured at 490 nm. Background absorbance (blank wells) was subtracted from all readings, and cell viability was calculated as a percentage relative to untreated controls. […]

cathepsins B, L, and V = test: Prodrug cleavage / MMAE release by LC-MS, other cathepsins; assay type: biochemical, human; details: prodrug 50 μM, pH 5.5, 37 °C
Protocol: (§1) Cleavage assays were conducted at 37 °C in 1 mL reaction volumes using acetate buffer composed of 100 mM sodium acetate (pH 5.5), 100 mM NaCl, 1 mM EDTA, and 5 mM DTT. Buffers were prepared at room temperature and equilibrated before use. Prodrugs were initially dissolved in DMSO at a stock concentration of 10 mM, then diluted into the reaction buffer to a final concentration of 50 μM, maintaining a DMSO concentration below 0.5% (v/v). Reactions were initiated by the addition of recombinant cathepsin and carried out in glass LC-MS vials incubated at 37 °C. At specified time points (0, 5, 30, 60, and 120 min), aliquots were taken and directly injected into the LC-MS system without further processing. Quantification of MMAE release was based on absorbance at 220 nm. The area under the MMAE peak was integrated, and the amount of released MMAE was plotted as a function of time. Each time point was measured in triplicate, and results are presented as mean ± standard deviation (SD). A standard curve was prepared using free MMAE at concentrations of 1, 5, 10, 20, and 50 μM to enable accurate quantification of MMAE released from the prodrugs.

Cathepsin S [2] = target: T1, Cathepsin S (Homo sapiens, UniProt P25774); test: Prodrug cleavage / MMAE release by LC-MS, cathepsin S; assay type: biochemical; details: prodrug 50 μM, pH 5.5, 37 °C, 0-120 min
T1 construct: made in house
T1 sequence (P25774 115-331): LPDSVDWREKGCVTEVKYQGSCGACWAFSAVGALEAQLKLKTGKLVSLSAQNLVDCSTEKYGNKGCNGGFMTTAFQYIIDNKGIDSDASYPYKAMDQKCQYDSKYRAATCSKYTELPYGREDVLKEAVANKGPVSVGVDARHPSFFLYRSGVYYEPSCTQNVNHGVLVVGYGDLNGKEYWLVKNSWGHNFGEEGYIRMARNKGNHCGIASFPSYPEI
Protocol: as §1

Cathepsin L = target: T2, Cathepsin L (Homo sapiens, UniProt P07711); test: Second-order rate constants of inhibition (kobs/[I]), cathepsin L; assay type: biochemical; details: Figure 4D; Cy5- and BODIPY-labeled probes
T2 construct: made in house
T2 sequence (P07711 114-333): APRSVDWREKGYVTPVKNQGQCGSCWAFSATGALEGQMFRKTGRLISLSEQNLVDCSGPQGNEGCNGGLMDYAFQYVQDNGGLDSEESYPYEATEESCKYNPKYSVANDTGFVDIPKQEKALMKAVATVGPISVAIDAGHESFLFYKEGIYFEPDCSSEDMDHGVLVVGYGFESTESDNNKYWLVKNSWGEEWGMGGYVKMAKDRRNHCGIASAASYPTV
Protocol: (§2) All kinetic studies were performed using an fMax fluorescence plate reader (Molecular Devices) in kinetic mode with 96- or 384-well plates. ACC fluorescence was monitored at excitation and emission wavelengths of 355 and 460 nm, respectively. Recombinant human cysteine cathepsins L, V, B, K, and S were expressed and purified as previously described. Prior to use, all cysteine cathepsins were titrated with E64 to normalize enzymatic activity. Assays for cathepsins were conducted in 100 mM sodium acetate buffer containing 10 mM NaCl and 10 mM DTT (pH 5.5). Breast cancer cell lysates (BT-474, MCF-7, MDA-MB-231) were prepared by culturing cells to confluence in the appropriate media, replacing media with PBS, and harvesting the cells using a cell scraper (without trypsin). The cells were pelleted by centrifugation (400 × g, 5 min), resuspended in PBS, and centrifuged again under the same conditions. After removal of the supernatant, the pellet was resuspended in cathepsin assay buffer (excluding DTT) and sonicated. Lysates were then clarified by centrifugation (12,000 × g, 5 min), and the supernatants were collected and stored at −80 °C until use. All enzymatic assays, including HyCoSuL library screening and kinetic analyses of synthetic substrates, inhibitors, probes and prodrugs, were conducted at 37 °C and repeated at least three times. Mean values are reported. Kinetic data were analyzed using GraphPad Prism software (version 10.4.1).
(§3) The second-order rate constants of inhibition (k obs/[I]) were determined for human recombinant cathepsins S, B, L, and V using their respective assay buffers. All measurements were performed under pseudo-first-order kinetic conditions, as previously described. Inhibitors or ABPs were serially diluted in assay buffer and transferred to a 96-well plate. Each well was supplemented with the fluorogenic substrate Cbz-Phe-Arg-AMC at a final concentration of 25 μM and preincubated for 15 min. In parallel, enzymes were preactivated in assay buffer for 15 min at room temperature. Following preincubation, the activated enzymes were added to the wells, and fluorescence was monitored immediately for 30 min. The k obs/[I] values (M^-1S^-1) were calculated from the progress curves and averaged from at least three independent experiments. Final inhibitor (or ABP) concentrations were maintained at a minimum of 5-fold excess relative to enzyme concentrations to ensure pseudo-first-order conditions. Results were analyzed in GraphPad Prism and are reported as mean ± standard deviation.

Cathepsin B [3] = target: T3, Cathepsin B (Homo sapiens, UniProt P07858); test: Labeling of cathepsin B in MDA-MB-231 live cells with Cy5 probes; assay type: cell-based; set-up: endogenous in cells; host or cells: MDA-MB-231; details: cellular environments; probe labeling
Protocol: (§4) 50,000 of MDA-MB-231 cells were seeded into 12-well plate and allowed to attach overnight. The next day, OG-233 and OG-234 probes (1 μM final concentration) were added to the cells and incubated for various times (from 0,5 h up to 24 h). Control cells were preincubated with cathepsin S inhibitors (JN1, JN4, JN7) at 25 μM for 2 h, and then incubated with OG-233 or OG-234 probes for 24 h. Next, cells were harvested and prepared for SDS-PAGE analysis as described in the above section. Electrophoresis was run for 25 min (4−12% Bis-Tris Plus 10-well gel, 200 V). Next, proteins were transferred onto the membrane (0.2 μm nitrocellulose membrane, 10 V, 60 min) and Ponceau S was used to verify equal loading and transfer. Membranes were then blocked with 5% BSA in TBS-T buffer for 1 h at RT. Membranes were next incubated anticathepsin S antibody (1:1,000, overnight, 4 °C), and the next day with a secondary antibody (IRDye 800CW, donkey anti-Goat) for 30 min at RT, and scanned at 680 and 800 nm using the Sapphire biomolecular imager (Azure Biosystems) to detect the Cy5 probes and cathepsin S. All images were analyzed with Image Studio software.

[4] = target: T4, active cathepsin S in MDA-MB-231 live cells (Homo sapiens, UniProt P25774); test: Labeling of active cathepsin S in MDA-MB-231 live cells with Cy5 probes; assay type: cell-based; details: probe 1 μM, 0,5 to 24 h
T4 construct: endogenous in cells; host or cells: MDA-MB-231
T4 sequence (P25774 115-331): as the sequence (P25774 115-331) above
Protocol: as §4

Cathepsin V = target: T5, Cathepsin V (Homo sapiens, UniProt O60911); test: Second-order rate constants of inhibition (kobs/[I]), cathepsin V; assay type: biochemical; details: Figure 4D; Cy5- and BODIPY-labeled probes
T5 construct: made in house
T5 sequence (O60911 114-334): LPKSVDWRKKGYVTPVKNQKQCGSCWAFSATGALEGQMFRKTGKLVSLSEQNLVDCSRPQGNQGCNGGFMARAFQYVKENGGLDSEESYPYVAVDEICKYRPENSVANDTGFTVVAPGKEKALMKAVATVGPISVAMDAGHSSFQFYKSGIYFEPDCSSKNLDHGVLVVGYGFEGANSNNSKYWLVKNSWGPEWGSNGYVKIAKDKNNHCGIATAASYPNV
Protocol: as §2, §3

Cathepsin S [5] = target: T1, Cathepsin S; test: Second-order rate constants of inhibition (kobs/[I]), cathepsin S; assay type: biochemical; details: Figure 4D
Protocol: as §2, §3

Cathepsin B [6] = target: T3, Cathepsin B; test: Second-order rate constants of inhibition (kobs/[I]), cathepsin B; assay type: biochemical; set-up: made in house; details: Figure 4D; Cy5- and BODIPY-labeled probes
Protocol: as §2, §3

Row | Compound | payload release [1] | cytotoxicity of sacituzumab (anti-TROP-2) ADCs (MDA-MB-231 cells) | cleavage / free MMAE release by other cathepsins (cathepsins B, L, and V) | cleavage / free MMAE release by cathepsin S (Cathepsin S [2]) | also measured
1 | 314 anti-TROP-2 ADC: sacituzumab (anti-TROP-2) ADC with Met(O2)-Cit-NptGly-Glu(Me) linker, PABC spacer and MMAE payload | approximately 6% | markedly more potent | – | – | –
2 | CC[C@H](C)[C@@H]([C@@H](CC(=O)N1CCC[C@H]1[C@H](OC)[C@@H](C)C(=O)N[C@H](C)[C@@H](O)c1ccccc1)OC)N(C)C(=O)[C@@H](NC(=O)[C@H](C(C)C)N(C)C(=O)OCc1ccc(NC(=O)[C@H](CCC(=O)OC)NC(=O)[C@H](CC(C)(C)C)NC(=O)[C@H](CCCNC(N)=O)NC(=O)[C@H](CCS(C)(=O)=O)NC(C)=O)cc1)C(C)C [compound 314, Ac-Met(O2)-Cit-NptGly-Glu(Me)-PABC-MMAE] (Ac-[Met(O2)][Cit][tBuAla]E(OMe)[PABC][NMeV]V[Dil][Dolaproine]-X1) | – | – | moderate cross-reactivity toward other cathepsins | also cleaved by cathepsin S | –
3 | Cy5-PEG(4)-Met(O2)-Cit-NptGly-Glu(Me)-AOMK [OG-234] | – | – | – | – | kobs/[I] Cath L (Cathepsin L): 5,530 M^-1s^-1; off-target labeling of cathepsin B in cells (Cathepsin B [3]): minor off-target labeling of cathepsin B; detection of active cathepsin S in living cells [4]: able to detect active cathepsin S as soon as upon 3 h incubation; kobs/[I] Cath V (Cathepsin V): 7,900 M^-1s^-1; kobs/[I] Cath S (Cathepsin S [5]; Cy5- and BODIPY-labeled probes): 253,000 M^-1s^-1; Selectivity S to B (Cathepsin S [5]; calculated from kobs/[I], cathepsin S over cathepsin B): 23; Selectivity S to L (Cathepsin S [5]; calculated from kobs/[I], cathepsin S over cathepsin L): 46; Selectivity S to V (Cathepsin S [5]; calculated from kobs/[I], cathepsin S over cathepsin V): 32; kobs/[I] Cath B (Cathepsin B [6]): 11,200 M^-1s^-1
4 | 313 anti-TROP-2 ADC: sacituzumab (anti-TROP-2) ADC with Phe(F5)-Cit-Lys(2ClZ)-Glu(Me) linker, PABC spacer and MMAE payload | approximately 6% | moderate toxicity | – | – | –
5 | CC[C@H](C)[C@@H]([C@@H](CC(=O)N1CCC[C@H]1[C@H](OC)[C@@H](C)C(=O)N[C@H](C)[C@@H](O)c1ccccc1)OC)N(C)C(=O)[C@@H](NC(=O)[C@H](C(C)C)N(C)C(=O)OCc1ccc(NC(=O)[C@H](CCCNC(N)=O)NC(=O)[C@@H](NC(=O)OCc2ccccc2)C(C)C)cc1)C(C)C [compound 300, Cbz-Val-Cit-PABC-MMAE, reference compound] (Cbz-V[Cit][PABC][NMeV]V[Dil][Dolaproine]-X1; N-terminus and C-terminus assumed) | – | – | efficiently cleaved by cathepsins S, B, L, and V | efficiently cleaved by cathepsins S, B, L, and V | –
6 | ADC 300: sacituzumab (anti-TROP-2) ADC with pan-cathepsin Val-Cit linker, PABC spacer and MMAE payload | 1.5% | – | – | – | –
